Data reported in PMC2857584 (Science (New York, N.Y.), 2009).

Target: T1, SepSecS (Homo sapiens, UniProt Q9HD40)
T1 sequence (Q9HD40 1-501): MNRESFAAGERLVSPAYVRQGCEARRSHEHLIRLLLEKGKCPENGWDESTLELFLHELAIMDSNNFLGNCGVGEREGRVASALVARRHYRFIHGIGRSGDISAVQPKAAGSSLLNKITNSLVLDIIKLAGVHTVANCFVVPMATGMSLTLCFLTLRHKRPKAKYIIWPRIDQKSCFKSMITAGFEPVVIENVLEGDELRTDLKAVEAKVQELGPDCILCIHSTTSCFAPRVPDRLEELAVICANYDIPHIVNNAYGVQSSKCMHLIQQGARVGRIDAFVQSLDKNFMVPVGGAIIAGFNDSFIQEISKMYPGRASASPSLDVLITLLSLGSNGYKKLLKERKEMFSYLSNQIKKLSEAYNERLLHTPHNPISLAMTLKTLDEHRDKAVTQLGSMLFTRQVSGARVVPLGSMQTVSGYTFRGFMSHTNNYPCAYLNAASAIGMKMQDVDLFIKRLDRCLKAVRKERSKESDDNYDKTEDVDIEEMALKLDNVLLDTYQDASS
Assay: X-ray crystallography, […] A
Format: binding
Details: covalent; Schiff base (internal aldimine) with Lys284

## Cc1ncc(COP(=O)(O)O)c(C=O)c1O [PLP, pyridoxal phosphate]
  X-ray crystallography, 2.8 A: Each SepSecS monomer has a PLP cofactor covalently linked to the Nε-amino group
